# Assay: Stability of polymorphs: slurry of Form 1, Form 2 and Form 3 in ethanol, crystal form examined by powder X-ray diffraction
# Type: physicochemical
# Protocol: Powder X-ray diffraction analysis of solid material was carried out using the Briker D8 powder diffractometer. Samples were mounted in Perspex sample holders and the samples flattened. The sample holder was rotated and X-rays were collected from 4° to 34° 2-theta, with a scan time of 25 to 30 minutes depending on the pattern intensity. Approximately 0.1 g each of Form 1, Form 2 and Form 3 were added to 10 ml of ethanol at 50° C. and 60° C. until there were solids out of solution (a slurry). The temperature was maintained with stirring and the crystal form examined after 2 and 8 days.
# [1] = about 0.1 g each of Form 1, Form 2 and Form 3 in 10 ml ethanol, stirred slurry at 50° C. and 60° C.
crystal form present in slurry after 2 days [1],"crystal form present in slurry after 8 days (about 0.1 g each of Form 1, Form 2 and Form 3 in 10 ml ethanol, stirred slurry at 50° C. and 60° C., 8 days in total)","stability relative to the other polymorphs (general statement in the description, Form 2 compared with Form 1 and Form 3)",SMILES
no evidence of Form 1,–,–,"CNC(=O)Nc1ccc(S(=O)(=O)NC(=O)c2ccccc2OC)cc1 [Form 1, N-(2-methoxybenzoyl)-4-[(methylaminocarbonyl)amino]benzenesulfonamide]"
still present,complete conversion to Form 2,stable polymorph,"CNC(=O)Nc1ccc(S(=O)(=O)NC(=O)c2ccccc2OC)cc1 [Form 2, N-(2-methoxybenzoyl)-4-[(methylaminocarbonyl)amino]benzenesulfonamide]"
still present,–,–,"CNC(=O)Nc1ccc(S(=O)(=O)NC(=O)c2ccccc2OC)cc1 [Form 3, N-(2-methoxybenzoyl)-4-[(methylaminocarbonyl)amino]benzenesulfonamide]"

# Reference: patent publication US9475765B2, “Polymorphs of N- (2 -methoxybenzoyl) -4- [ (methylaminocarbonyl) amino] benzenesulfonamide” (Syngenta Limited, priority 2012, dated 2016)
